US10683297B2 (Sunshine Lake Pharma Co., Ltd., priority 2017, dated 2020)

Tests used:
[1] = target: T1, JAK1 (h) (Homo sapiens, UniProt P23458); assay: JAK1 (h) kinase assay; assay type: biochemical; details: [γ-33P-ATP] 10 μM or KM values; 40 minutes at room temperature
T1 construct: purchased Millipore UK Ltd (assays performed there as a service)
Experimental: The above assay procedure can be used to determine the IC50 for inhibition and/or the inhibition constant, Ki. […] The IC50 value is estimated by preparing a 10 point curve using a ½ log dilution series (for example, a typical curve may be prepared using the following compound concentrations: 3 μM, 1 μM, 0.3 μM, 0.1 μM, 0.03 μM, 0.01 μM, 0.003 μM, 0.001 μM, 0.0003 μM and 0 μM).
JAK1 (h) is incubated with 20 mM Tris/HCl pH 7.5, 0.2 mM EDTA, 500 μM […], 10 mM MgAcetate and [γ-^33P-ATP] […] The reaction is initiated by the addition of the MgATP mix. After incubation for 40 minutes at room temperature, the reaction is stopped by the addition of 3% phosphoric acid solution. 10 μL of the reaction is then spotted onto a P30 filtermat and washed three times for 5 minutes in 75 mM phosphoric acid and once in methanol prior to drying and scintillation counting.
The kinase assays described herein were performed at Millipore UK Ltd, Dundee Technology Park, Dundee DD2 1SW, UK.

[2] = Compound stability in human liver microsomes; assay type: in vitro ADME; details: for half-life at 5 μM: human liver microsomes 0.5 mg protein/mL, compound 5 μM, NADPH 1.0 mM, pH 7.4, 37° C., read-out: Human T1/2; for CLint scaled at 5 μM: liver microsomes, pH 7.4, in vivo CLint extrapolated from human liver microsome incubation
Experimental: (§1) The LC/MS/MS system used in the analysis consists of an Agilent 1200 Series vacuum degasser, binary pump, well-plate autosampler, thermostatted column compartment, the Agilent G6430 Triple Quadrupole Mass Spectrometer with an electrosprayionization (ESI) source. Quantitative analysis was carried out using MRM mode. The parameters for MRM transitions are in the Table A.
(§2) An Agilent XDB-C18, 2.1×30 mm, 3.5 μM column was used for the analysis. 5 μL of the samples were injected. Analysis condition: The mobile phase was 0.1% formic acid in water (A) and 0.1% formic acid in methanol (B). The flow rate was 0.4 mL/min. And the gradient of Mobile phase was in the Table B.
(§3) Alternatively, an Agilent 6330 series LC/MS/MS spectrometer equipped with G1312A binary pumps, a G1367A autosampler and a G1314C UV detector were used in the analysis. An ESI source was used on the LC/MS/MS spectrometer. The analysis was done in positive ion mode as appropriate and the MRM transition for each analyte was optimized using standard solution. A Capcell MP-C18 100×4.6 mm I.D., 5 uM column (Phenomenex, Torrance, Calif., USA) was used during the analysis. The mobile phase was 5 mM ammonia acetate, 0.1% MeOH in water (A): 5 mM ammonia acetate, 0.1% MeOH in acetonitrile (B) (70/30, v/v). The flow rate was 0.6 mL/min. Column was maintained at ambient temperature. 20 μL of the samples were injected.
(§4) Human or rat liver microsomes incubations were conducted in duplicate in polypropylene tubes. The typical incubation mixtures consisted of human or rat liver microsomes (0.5 mg protein/mL), compounds of interest (5 μM) and NADPH (1.0 mM) in a total volume of 200 μL potassium phosphate buffer (PBS, 100 mM, pH 7.4). Compounds were dissolved in DMSO and diluted with PBS such that the final concentration of DMSO was 0.05%. The enzymatic reactions were commenced with the addition of […] after a 3-min preincubation and incubated in a water bath open to the air at 37° C. Reactions were terminated at various time points (0, 5, 10, 15, 30, 60 min) by adding equal volume of ice-cold acetonitrile. The samples were stored at […] until LC/MS/MS assays.
(§5) The concentrations of compounds in the incubation mixtures of human or rat liver microsomes were determined by a LC/MS/MS method. The ranges of the linearity in the concentration range were determined for each tested compounds.
(§6) A parallel incubation was performed using denatured microsomes as the negative control, and reactions were terminated at various time points (0, 15, 60 min) after incubation at 37° C.
(§7) Dextromethorphan (70 μM) was selected as the positive control, and reactions were terminated at various time points (0, 5, 10, 15, 30, 60 min) after incubation at 37° C. Both positive and negative control samples were included in each assay to ensure the integrity of the microsomal incubation system.
(§8) The concentrations of compounds in human or rat liver microsome incubations were plotted as a percentage of the relevant zero time point control for each reaction. The in vivo CLint were extrapolated (ref.: Naritomi, Y.; Terashita, S.; Kimura, S.; Suzuki, A.; Kagayama, A.; and Sugiyama, Y.; Prediction of human hepatic clearance from in vivo animal experiments and in vitro metabolic studies with liver microsomes from animals and humans. Drug Metab. Dispos., 2001, 29: 1316-1324).

[3] = Compound stability in rat liver microsomes; assay type: in vitro ADME; details: for CLint scaled at 5 μM: liver microsomes, pH 7.4, in vivo CLint extrapolated from rat liver microsome incubation; for half-life at 5 μM: rat liver microsomes 0.5 mg protein/mL, compound 5 μM, NADPH 1.0 mM, pH 7.4, 37° C., read-out: Rat T1/2
Experimental: as §1, §2, §3, §4, §5, §6, §7, §8

[4] = Pharmacokinetics after intravenous and oral administration in rats; assay type: in vivo; details: for Clearance (CL) after iv dosing / AUC(0-t) / half-life / Vd: dose 1 mg/kg (Ex. 9: 0.6, Ex. 18: 0.5, Ex. 50: 0.96 mg/kg), iv dosing; for AUC(0-t) / half-life / Vd / bioavailability: rat, plasma; for Vd: read-out: Vss; for bioavailability: oral (generally 5 or 10 mg/kg) versus iv dosing, read-out: F (oral bioavailability)
Experimental: as §1, §2, §3
The compounds disclosed herein are assessed in pharmacokinetic studies in mice, rats, dogs or monkeys. The compounds are administered as a water solution, 2% HPMC+1% TWEEN®80 in water solution, 5% DMSO+5% solutol in saline, 4% MC suspension or capsule. For the intravenous administration, the animals are generally given at about 0.5, 0.6, 1 or 2 mg/kg dose. For the oral (p.o.) dosing, mice and rats are generally given 5 or 10 mg/kg dose, and dogs and monkeys are generally given 10 mg/kg dose. The blood samples (0.3 mL) are drawn at 0.25, 0.5, 1.0, 2.0, 3.0, 4.0, 6.0, 8.0, 12 and 24 h time points or 0.083, 0.25, 0.5, 1.0, 2.0, 4.0, 6.0, 8.0 and 24 h time points and centrifuged at 3,000 or 4000 rpm for 2 to 10 min. The plasma solutions are collected, and stored at […] until analyzed by LC/MS/MS as described above.

T1 sequence (P23458 whole entry): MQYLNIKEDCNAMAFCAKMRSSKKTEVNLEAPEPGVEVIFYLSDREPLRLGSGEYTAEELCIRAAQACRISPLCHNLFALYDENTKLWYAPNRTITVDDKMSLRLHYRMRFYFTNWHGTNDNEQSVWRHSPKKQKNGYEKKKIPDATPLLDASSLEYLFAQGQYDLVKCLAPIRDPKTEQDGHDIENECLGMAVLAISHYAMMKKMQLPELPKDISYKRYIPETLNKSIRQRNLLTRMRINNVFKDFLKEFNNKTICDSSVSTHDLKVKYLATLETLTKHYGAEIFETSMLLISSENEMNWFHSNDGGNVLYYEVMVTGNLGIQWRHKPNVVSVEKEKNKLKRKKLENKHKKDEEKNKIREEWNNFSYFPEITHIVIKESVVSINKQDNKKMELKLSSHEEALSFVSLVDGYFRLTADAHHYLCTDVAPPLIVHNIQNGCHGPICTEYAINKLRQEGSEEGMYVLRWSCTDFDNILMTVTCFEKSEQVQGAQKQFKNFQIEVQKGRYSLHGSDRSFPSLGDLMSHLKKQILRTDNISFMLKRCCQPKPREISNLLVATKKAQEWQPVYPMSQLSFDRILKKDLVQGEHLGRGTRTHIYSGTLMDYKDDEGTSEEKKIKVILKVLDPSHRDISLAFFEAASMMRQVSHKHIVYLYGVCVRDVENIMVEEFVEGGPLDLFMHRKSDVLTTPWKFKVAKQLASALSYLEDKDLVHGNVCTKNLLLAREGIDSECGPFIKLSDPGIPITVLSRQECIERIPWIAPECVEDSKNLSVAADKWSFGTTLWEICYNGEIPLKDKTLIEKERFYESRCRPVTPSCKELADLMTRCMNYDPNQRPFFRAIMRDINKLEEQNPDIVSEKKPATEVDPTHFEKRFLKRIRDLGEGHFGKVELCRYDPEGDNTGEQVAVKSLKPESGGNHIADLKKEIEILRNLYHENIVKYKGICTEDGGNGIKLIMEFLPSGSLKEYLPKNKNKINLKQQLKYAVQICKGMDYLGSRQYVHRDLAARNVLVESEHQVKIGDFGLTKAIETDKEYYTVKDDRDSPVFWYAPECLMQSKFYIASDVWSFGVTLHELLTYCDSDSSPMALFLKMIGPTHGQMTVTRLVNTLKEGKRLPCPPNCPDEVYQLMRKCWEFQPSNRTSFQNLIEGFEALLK

| Compound | IC50 [1] [nM] | half-life at 5 μM [2] [min] | CLint scaled at 5 μM [2] [mL/min/kg] | CLint scaled at 5 μM [3] [mL/min/kg] | half-life at 5 μM [3] [min] | Clearance (CL) after iv dosing [4] [mL/min/kg] | AUC(0-t) [4] [ng·h/mL] | half-life [4] [min] | Vd [4] [L/kg] | bioavailability [4] [%] |
| --- | --- | --- | --- | --- | --- | --- | --- | --- | --- | --- |
| Cc1c(Nc2ncc(Cl)c(NC3CCN(c4ccc(C#N)nn4)CC3)n2)ccn2c(C)cnc12 [Example 29, 6-(4-((5-chloro-2-((3,8-dimethylimidazo[1,2-a]pyridin-7-yl)amino)pyrimidin-4-yl)amino)piperidin-1-yl)pyridazine-3-carbonitrile] |  | 43.9 | 39.6 | 76.8 | 32.4 | 22.3 | 751 | 39.6 | 1.16 | 38.5 |
| CC(O)Cn1cnc2cc(Nc3ncc(Cl)c(NC4CCN(c5ccc(C#N)cn5)CC4)n3)cnc21 (centres unmarked) [Example 52, 6-(4-((5-chloro-2-((3-(2-hydroxypropyl)-3H-imidazo[4,5-b]pyridin-6-yl)amino)pyrimidin-4-yl)amino)piperidin-1-yl)nicotinonitrile] |  | 47.8 | 36.4 | 85.1 | 29.2 | 15.2 | 1090 | 51.6 | 0.96 | 34.1 |
| CC(O)Cn1ccc2cc(Nc3ncc(Cl)c(NC4CCN(c5ccc(C#N)cn5)CC4)n3)cnc21 (centres unmarked) [Example 54, 6-(4-((5-chloro-2-((1-(2-hydroxypropyl)-1H-pyrrolo[2,3-b]pyridin-5-yl)amino)pyrimidin-4-yl)amino)piperidin-1-yl)nicotinonitrile] |  | 8.52 | 204 | 634 | 3.92 | 23.8 | 714 | 47.4 | 0.95 | 36.6 |
| CN(C)C(=O)c1nc2cc(Nc3ncc(Cl)c(NC4CCN(c5ccc(C#N)cn5)CC4)n3)ccn2n1 [Example 83, 7-((5-chloro-4-((1-(5-cyanopyridin-2-yl)piperidin-4-yl)amino)pyrimidin-2-yl)amino)-N,N-dimethyl-[1,2,4]triazolo[1,5-a]pyridine-2-carboxamide] |  | 15.1 | 115 | 193 | 12.9 | 9.33 | 1830 | 84.6 | 0.65 | 38.6 |
| CC(C)(O)c1nc2cc(Nc3ncc(Cl)c(NC4CCN(c5ccc(C#N)nn5)CC4F)n3)ccn2n1 (centres unmarked) [Example 88, 6-(4-((5-chloro-2-((2-(2-hydroxypropan-2-yl)-[1,2,4]triazolo[1,5-a]pyridin-7-yl)amino)pyrimidin-4-yl)amino)-3-fluoropiperidin-1-yl)pyridazine-3-carbonitrile] |  | 4720 | 0.4 | 13.2 | 188 | 17.5 | 1460 | 32.3 | 0.688 | 4.5 |

Now from value to compound:

| IC50 [1] [nM] | half-life at 5 μM [2] [min] | CLint scaled at 5 μM [2] [mL/min/kg] | CLint scaled at 5 μM [3] [mL/min/kg] | half-life at 5 μM [3] [min] | Clearance (CL) after iv dosing [4] [mL/min/kg] | AUC(0-t) [4] [ng·h/mL] | half-life [4] [min] | Vd [4] [L/kg] | bioavailability [4] [%] | Compound |
| --- | --- | --- | --- | --- | --- | --- | --- | --- | --- | --- |
| 0.3 |  |  |  |  |  |  |  |  |  | Cc1nc2cc(Nc3ncc(Cl)c(NC4CCN(c5ccc(C#N)nn5)CC4)n3)ccn2c1C [Example 16, 6-(4-((5-chloro-2-((2,3-dimethylimidazo[1,2-a]pyridin-7-yl)amino)pyrimidin-4-yl)amino)piperidin-1-yl)pyridazine-3-carbonitrile] |
|  | 125 | 13.9 | 87.5 | 28.4 | 10.5 | 1560 | 72 | 1.53 | 46.9 | Cc1nc2ccc(Nc3ncc(Cl)c(NC4CCN(c5ccc(C#N)nn5)CC4)n3)cn2n1 [Example 34, 6-(4-((5-chloro-2-((2-methyl-[1,2,4]triazolo[1,5-a]pyridin-6-yl)amino)pyrimidin-4-yl)amino)piperidin-1-yl)pyridazine-3-carbonitrile] |
|  | 183 | 9.5 | 17.2 | 144 | 5.33 | 3110 | 156 | 0.53 | 57.6 | Cc1nc2cc(Nc3ncc(Cl)c(NC4CCN(c5ccc(C#N)nn5)CC4)n3)ccn2n1 [Example 35, 6-(4-((5-chloro-2-((2-methyl-[1,2,4]triazolo[1,5-a]pyridin-7-yl)amino)pyrimidin-4-yl)amino)piperidin-1-yl)pyridazine-3-carbonitrile] |
|  | 52.7 | 33 | 76.5 | 32.5 | 10.8 | 1540 | 36 | 0.56 | 79.6 | Cc1nc2cc(Nc3ncc(Cl)c(NC4CCN(c5ccc(C#N)nn5)CC4)n3)ccc2n1C [Example 49, 6-(4-((5-chloro-2-((1,2-dimethyl-1H-benzo[d]imidazol-5-yl)amino)pyrimidin-4-yl)amino)piperidin-1-yl)pyridazine-3-carbonitrile] |
| 0.4 |  |  |  |  |  |  |  |  |  | N#Cc1ccc(N2CCC(Nc3nc(Nc4ccc5c(c4)ncn5CC4CC4)ncc3Cl)CC2)nn1 [Example 63, 6-(4-((5-chloro-2-((1-(cyclopropylmethyl)-1H-benzo[d]imidazol-5-yl)amino)pyrimidin-4-yl)amino)piperidin-1-yl)pyridazine-3-carbonitrile] |
